These are literature values, as cited in Sander's compilation of Henry's law constants (doi:10.1080/10643389609388492).

The nature of this series: Henry solubility constant Hcp at 298.15 K (mol/(m3 Pa)). Conditions: reference: Staudinger and Roberts (1996); cited value.
For the molecule `Cc1ccccc1C` [1,2-dimethylbenzene], the “Henry solubility constant Hcp” value was 0.0019.
Turning to `ClC(Cl)C(Cl)Cl` [1,1,2,2-tetrachloroethane], the “Henry solubility constant Hcp” value is 0.024.
As to `ClC(Cl)(Cl)Cl` [tetrachloromethane], the “Henry solubility constant Hcp” value was 0.00034.
For `ClC(Cl)Br` [bromodichloromethane], the “Henry solubility constant Hcp” value is 0.004.
Take `Cc1ccccc1` [methylbenzene]: the “Henry solubility constant Hcp” value was 0.0015.
As to `CCc1ccccc1` [ethylbenzene], the “Henry solubility constant Hcp” value was 0.0012.
Take `ClCC(Cl)CCl` [1,2,3-trichloropropane]: the “Henry solubility constant Hcp” value was 0.034.
Turning to `BrC(Br)Br` [tribromomethane], the “Henry solubility constant Hcp” value is 0.017.
Regarding `CC(Cl)(Cl)Cl` [1,1,1-trichloroethane], the “Henry solubility constant Hcp” value is 0.00058.
For the molecule `CC(Cl)CCl` (stereo not given) [1,2-dichloropropane], the “Henry solubility constant Hcp” value was 0.0034.
On to `C=C(Cl)Cl` [1,1-dichloroethene], for which the “Henry solubility constant Hcp” value is 0.00034.
With `c1ccccc1` [benzene], the “Henry solubility constant Hcp” value was 0.0016.
Consider `ClC=C(Cl)Cl` [trichloroethene], for which the “Henry solubility constant Hcp” value was 0.00099.
As to `O=Cc1ccccc1` [benzaldehyde], the “Henry solubility constant Hcp” value is 0.39.
Consider `ClC(Br)Br` [dibromochloromethane], for which the “Henry solubility constant Hcp” value is 0.0085.
With `Cc1ccc(C)cc1` [1,4-dimethylbenzene], the “Henry solubility constant Hcp” value was 0.0013.
With `Cc1cccc(C)c1` [1,3-dimethylbenzene], the “Henry solubility constant Hcp” value is 0.0013.
`ClCC(Cl)Cl` [1,1,2-trichloroethane]: the “Henry solubility constant Hcp” value was 0.011.
Regarding `ClCCl` [dichloromethane], the “Henry solubility constant Hcp” value was 0.0036.
Regarding `C=CCl` [chloroethene], the “Henry solubility constant Hcp” value was 0.00039.
As to `ClC(Cl)=C(Cl)Cl` [tetrachloroethene], the “Henry solubility constant Hcp” value was 0.00058.
With `ClC(Cl)(Cl)C(Cl)(Cl)Cl` [hexachloroethane], the “Henry solubility constant Hcp” value was 0.0025.
For the molecule `CC(C)=O` [propanone], the “Henry solubility constant Hcp” value is 0.3.
Turning to `Clc1ccccc1` [chlorobenzene], the “Henry solubility constant Hcp” value was 0.0027.
On to `CCCl` [chloroethane], for which the “Henry solubility constant Hcp” value is 0.00083.
